# Experimental data taken from ChEMBL document CHEMBL2169821, “Design, synthesis, and evaluation of pH-dependent hydrolyzable emetine analogues as treatment for prostate cancer” (J Med Chem, 2012).
# Active and inactive are the calls of the source. No cut-off for these calls is given here.
# What was measured:
# [1] = test system: PC-3; experiment: Cytotoxicity against human PC3 cells measured on day 5 by MTT assay; type: functional, cell-based
# [2] = test system: LNCaP; experiment: Cytotoxicity against human LNCAP cells measured on day 7 by MTT assay; type: functional, cell-based
# [3] = Chemical stability of the compound in phosphate buffer up to 48 hrs at pH 5.5 by HPLC analysis; type: physicochemical; conditions: pH 5.5, 48 h
# [4] = test system: PC-3; experiment: Cytotoxicity against human PC3 cells measured on day 7 by MTT assay; type: functional, cell-based
# [5] = test system: PC-3; experiment: Cytotoxicity against human PC3 cells measured on day 3 by MTT assay; type: functional, cell-based
# [6] = Chemical stability of the compound in phosphate buffer up to 48 hrs at pH 6.5 by HPLC analysis; type: physicochemical; conditions: pH 6.5, 48 h
# [7] = Chemical stability of the compound in phosphate buffer up to 5 days at pH 7.4 by HPLC analysis; type: physicochemical; conditions: phosphate buffer, pH 7.4; read-out: Stability
# [8] = Prodrug activation in phosphate buffer assessed as emetine formation up to 48 hrs at pH 5.5 by HPLC analysis; conditions: pH 5.5, 48 h
# [9] = test system: Mus musculus; experiment: Toxicity in Balb/c mouse assessed as mortality at 33 mg/kg, iv qd administered as bolus for 5 days measured up to 5 days; type: organism-based; set-up: dose 33 mg/kg, route intravenous; conditions: in vivo, 120 h
# [10] = test system: DU-145; experiment: Cytotoxicity against human DU145 cells by MTT assay; type: functional, cell-based; conditions: TDE = time-dependent effect
# [11] = test system: DU-145; experiment: Cytotoxicity against human DU145 cells measured on day 7 by MTT assay; type: functional, cell-based
# [12] = test system: LNCaP; experiment: Cytotoxicity against human LNCAP cells by MTT assay; type: functional, cell-based; conditions: TDE = time-dependent effect
# [13] = test system: Mus musculus; experiment: Toxicity in Balb/c mouse assessed as lethargy at 33 mg/kg, iv qd administered as bolus for 5 days measured within 48 hrs; type: organism-based; set-up: dose 33 mg/kg, route intravenous; conditions: in vivo
# [14] = test system: LNCaP; experiment: Cytotoxicity against human LNCAP cells measured on day 3 by MTT assay; type: functional, cell-based
# [15] = test system: DU-145; experiment: Cytotoxicity against human DU145 cells measured on day 5 by MTT assay; type: functional, cell-based
# [16] = test system: Mus musculus; experiment: Toxicity in Balb/c mouse assessed as weight loss at 33 mg/kg, iv qd administered as bolus for 5 days measured within 24 hrs (reference value: 1.7%); type: organism-based; set-up: dose 33 mg/kg, route intravenous; conditions: in vivo
# [17] = test system: LNCaP; experiment: Cytotoxicity against human LNCAP cells measured on day 5 by MTT assay; type: functional, cell-based
# [18] = test system: DU-145; experiment: Cytotoxicity against human DU145 cells measured on day 3 by MTT assay; type: functional, cell-based
# [19] = test system: Mus musculus; experiment: Toxicity in Balb/c mouse assessed as mortality at 100 mg/kg, iv administered as bolus measured within 48 hrs; type: organism-based; set-up: dose 100 mg/kg, route intravenous; conditions: in vivo
# [20] = test system: Mus musculus; experiment: Toxicity in Balb/c mouse assessed as weight loss at 33 mg/kg, iv qd administered as bolus for 5 days measured within 48 hrs relative to untreated control; type: organism-based; set-up: dose 33 mg/kg, route intravenous; conditions: in vivo
# [21] = test system: PC-3; experiment: Cytotoxicity against human PC3 cells by MTT assay; type: functional, cell-based; conditions: TDE = time-dependent effect
structure (smiles),measurement,setting,value
CC[C@H]1CN2CCc3cc(OC)c(OC)cc3[C@@H]2C[C@@H]1C[C@@H]1c2cc(OC)c(OC)cc2CCN1C(=O)/C=C(/C)C(=O)O,Activity,[1],Active
CC[C@H]1CN2CCc3cc(OC)c(OC)cc3[C@@H]2C[C@@H]1C[C@@H]1c2cc(OC)c(OC)cc2CCN1C(=O)NCc1ccc(Cl)cc1,Activity,[1],Active
same,IC50,"[2]; Homo sapiens, LNCaP, 168 h",5410 nM
same,Stability,[3],Stable
same,IC50,"[4]; Homo sapiens, PC-3, 168 h",10000 nM
same,Activity,[5],Active
same,Stability,[6],Stable
CC[C@H]1CN2CCc3cc(OC)c(OC)cc3[C@@H]2C[C@@H]1C[C@@H]1c2cc(OC)c(OC)cc2CCN1C(=S)NCc1ccc(Cl)cc1,Activity,[1],Active
same,IC50,"[2]; Homo sapiens, LNCaP, 168 h",1590 nM
same,Stability,[3],Stable
same,IC50,"[4]; Homo sapiens, PC-3, 168 h",2860 nM
same,Activity,[5],Active
same,Stability,[6],Stable
CC[C@H]1CN2CCc3cc(OC)c(OC)cc3[C@@H]2C[C@@H]1C[C@@H]1c2cc(OC)c(OC)cc2CCN1C(=O)NCc1ccc(OC)cc1,Activity,[1],Active
same,IC50,"[2]; Homo sapiens, LNCaP, 168 h",7840 nM
same,Stability,[3],Stable
same,IC50,"[4]; Homo sapiens, PC-3, 168 h",3670 nM
same,Activity,[5],Active
same,Stability,[6],Stable
CC[C@H]1CN2CCc3cc(OC)c(OC)cc3[C@@H]2C[C@@H]1C[C@@H]1c2cc(OC)c(OC)cc2CCN1C(=O)OCc1ccccc1,Activity,[1],Active
same,IC50,"[2]; Homo sapiens, LNCaP, 168 h",3240 nM
same,Stability,[3],Stable
same,IC50,"[4]; Homo sapiens, PC-3, 168 h",6070 nM
same,Activity,[5],Active
same,Stability,[6],Stable
CC[C@H]1CN2CCc3cc(OC)c(OC)cc3[C@@H]2C[C@@H]1C[C@@H]1c2cc(OC)c(OC)cc2CCN1C(=O)CCC(=O)O,IC50,[2]; lncap,2410 nM
same,IC50,[4]; pc-3,2100 nM
CC[C@H]1CN2CCc3cc(OC)c(OC)cc3[C@@H]2C[C@@H]1C[C@@H]1c2cc(OC)c(OC)cc2CCN1S(=O)(=O)c1ccccc1,IC50,"[2]; Homo sapiens, LNCaP, 168 h",2260 nM
same,Stability,[3],Stable
same,IC50,"[4]; Homo sapiens, PC-3, 168 h",> 10000 nM
same,Stability,[6],Stable
CC[C@H]1CN2CCc3cc(OC)c(OC)cc3[C@@H]2C[C@@H]1C[C@@H]1c2cc(OC)c(OC)cc2CCN1C(=O)/C=C(/CC(=O)[O-])C(=O)[O-].[Na+].[Na+],Activity,[1],Active
same,IC50,"[2]; Homo sapiens, LNCaP, 168 h",5460 nM
same,remaining at 120 h,[7],100%
same,Drug metabolism,[8],Active
same,IC50,"[4]; Homo sapiens, PC-3, 168 h",2890 nM
same,Activity,[5],Active
CC[C@H]1CN2CCc3cc(OC)c(OC)cc3[C@@H]2C[C@@H]1C[C@@H]1c2cc(OC)c(OC)cc2CCN1S(=O)(=O)c1ccc(OC)cc1,Activity,[1],Active
same,IC50,"[2]; Homo sapiens, LNCaP, 168 h",3150 nM
same,Stability,[3],Stable
same,IC50,"[4]; Homo sapiens, PC-3, 168 h",6080 nM
same,Stability,[6],Stable
CC[C@H]1CN2CCc3cc(OC)c(OC)cc3[C@@H]2C[C@@H]1C[C@H]1NCCc2cc(OC)c(OC)cc21.Cl.Cl [EMETINE HYDROCHLORIDE],Activity,[9],Non-toxic
same,Activity,[1],Dose-dependent effect
same,IC50,"[1]; PC-3, 120 h",26.8 nM
same,Activity,[10],tde
same,Activity,[11],Dose-dependent effect
same,IC50,"[11]; DU-145, 168 h",23.7 nM
same,Activity,[12],tde
same,Activity,[2],Dose-dependent effect
same,IC50,"[2]; Homo sapiens, LNCaP, 168 h",31.6 nM
same,Activity,[13],Toxic
same,Activity,[14],Dose-dependent effect
same,IC50,[14]; 72 h,37.9 nM
same,Activity,[15],Dose-dependent effect
same,IC50,"[15]; DU-145, 120 h",25.3 nM
same,Activity,[16],4.5%
same,Activity,[17],Dose-dependent effect
same,Activity,[18],Dose-dependent effect
same,IC50,"[18]; DU-145, 72 h",32.9 nM
same,Activity,[4],Dose-dependent effect
same,IC50,"[4]; Homo sapiens, PC-3, 168 h",29.4 nM
same,Activity,[19],Toxic
same,Activity,[5],Dose-dependent effect
same,IC50,"[5]; PC-3, 72 h",35.1 nM
same,Activity,[20],3.6%
same,Activity,[21],tde
CC[C@H]1CN2CCc3cc(OC)c(OC)cc3[C@@H]2C[C@@H]1C[C@@H]1c2cc(OC)c(OC)cc2CCN1C(=O)/C=C\C(=O)O,Activity,[1],Active
same,Activity,[5],Active
